Laboratory results from patent US20200138827A1, “SMALL MOLECULE MODULATORS OF HUMAN STING” (Curadev Pharma Limited, priority 2017, published 2020).
Like-named read-outs stand apart in the source and are kept apart here.

Assays:
WT/R232 STING protein = target: T1, WT/R232 STING protein (Homo sapiens, UniProt Q86WV6, H232R); experiment: Luciferase reporter assay in HEK293T-hSTING-Luciferase cells, WT/R232; type: cell-based; details: 20 hr stimulation, read-out: R232 Activity (EC50 range)
T1 construct: host or cells: HEK293T
T1 sequence (Q86WV6 whole entry H232R): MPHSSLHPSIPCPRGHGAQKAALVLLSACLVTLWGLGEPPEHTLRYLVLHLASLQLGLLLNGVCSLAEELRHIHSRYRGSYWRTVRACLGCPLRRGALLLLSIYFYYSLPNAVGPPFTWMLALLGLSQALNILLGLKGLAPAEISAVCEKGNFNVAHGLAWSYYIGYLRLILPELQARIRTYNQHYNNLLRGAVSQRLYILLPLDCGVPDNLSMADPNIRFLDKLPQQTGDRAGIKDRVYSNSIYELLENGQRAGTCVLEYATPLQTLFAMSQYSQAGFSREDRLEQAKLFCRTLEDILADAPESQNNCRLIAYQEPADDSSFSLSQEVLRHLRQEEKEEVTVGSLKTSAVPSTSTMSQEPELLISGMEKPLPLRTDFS
In short: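 Clonal HEK293T cells stably expressing human STING R232 plus an ISRE/ISG54-driven luciferase reporter, 5×10^5 per well, stimulated with compounds for 20 h. Secreted luciferase in supernatant measured by luminescence; […].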

IRF pathway = experiment: Reporter gene expression assay in THP1-Dual cells, IRF axis (secreted Lucia luciferase); type: cell-based, human; details: read-out: THP-IRF activity (EC50 range)
In short: (§1)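 THP-1-derived cells carrying inducible NF-κB-SEAP and IRF-Lucia reporters, seeded at 5×10^5 and stimulated with compounds. After […], supernatant SEAP read with QUANTI-Blue and Lucia luciferase with QUANTI-Luc.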

hSTING(H232) = target: T2, hSTING(H232) (Homo sapiens, UniProt Q86WV6); experiment: Luciferase reporter assay in HEK293T-hSTING-Luciferase cells, H232 polymorph; type: cell-based; details: 20 hr stimulation, read-out: H232 activity (EC50 range)
T2 construct: host or cells: HEK293T
T2 sequence (Q86WV6 whole entry): as the sequence (Q86WV6 whole entry H232R) above, with R232H counted along it
In short: (§2)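 HEK293T clones stably expressed the given human STING variant plus luciferase under an ISRE/ISG54 IRF-inducible promoter. 5×10^5 cells were stimulated with compound for 20 hr, and secreted luciferase in the supernatant was measured by Quanti-Luc luminescence.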

hSTING(HAQ) = target: T3, hSTING(HAQ) (Homo sapiens, UniProt Q86WV6, G230A/H232R/R293Q/R71H); experiment: Luciferase reporter assay in HEK293T-hSTING-Luciferase cells, HAQ polymorph; type: cell-based; details: 20 hr stimulation, read-out: HAQ activity (EC50 range)
T3 construct: host or cells: HEK293T
T3 sequence (Q86WV6 whole entry R71H/G230A/H232R/R293Q): as the sequence (Q86WV6 whole entry H232R) above, with R71H, G230A, R293Q counted along it
In short: as §2

NF-κB pathway = experiment: Reporter gene expression assay in THP1-Dual cells, NFkB axis (secreted SEAP); type: cell-based, human; details: read-out: THP-NFKB activity (EC50 range)
In short: as §1

Compound	EC50 (WT/R232 STING protein) [µM]	EC50 (IRF pathway; Homo sapiens, THP1-Dual) [µM]	EC50 (hSTING(H232)) [µM]	EC50 (hSTING(HAQ)) [µM]	EC50 (NF-κB pathway; Homo sapiens, THP1-Dual) [µM]	EC50 (IRF pathway) [µM]	EC50 (NF-κB pathway) [µM]
CC1Sc2ccc(C(=O)NCc3cc4ccccc4o3)nc2N(Cc2c(F)cccc2Cl)C1=O (centres unmarked) [Example 188, N-(benzofuran-2-ylmethyl)-4-(2-chloro-6-fluorobenzyl)-2-methyl-3-oxo-3,4-dihydro-2H-pyrido[3,2-b-1,4]thiazine-6-carboxamide]	< 1	> 10	1 to 10	1 to 10	1 to 10		
Cc1cc(CN2C(=O)CSc3ccc(C(=O)NCc4ccco4)cc32)cc(C(F)(F)F)c1 [Example 83, N-(furan-2-ylmethyl)-4-(3-methyl-5-(trifluoromethyl)benzyl)-3-oxo-3,4-dihydro-2H-benzo[b-1,4]thiazine-6-carboxamide]	1 to 10	> 10	> 10	> 10	> 10		
Cc1ccc(CNC(=O)c2ccc3c(n2)N(Cc2cc(F)cc(F)c2)C(=O)C(C)S3)o1 (centres unmarked) [Example 203, 4-(3,5-difluorobenzyl)-2-methyl-N-((5-methylfuran-2-yl)methyl)-3-oxo-3,4-dihydro-2H-pyrido[3,2-b][1,4]thiazine-6-carboxamide]	1 to 10		1 to 10	1 to 10		> 10	> 10
CC1Cc2ccc(C(=O)NCc3c(F)cc(F)cc3F)cc2N(Cc2cc(F)cc(F)c2)S1(=O)=O (centres unmarked) [Example 285, 1-(3,5-Difluorobenzyl)-3-methyl-N-(2,4,6-trifluorobenzyl)-3,4-dihydro-1H-benzo[c][1,2]thiazine-7-carboxamide 2,2-dioxide]	1 to 10	> 10	1 to 10	1 to 10	> 10		
O=C(NCc1c(F)cc(F)cc1F)c1ccc2c(c1)N(Cc1cc(F)cc(F)c1)S(=O)(=O)CC2 [Example 284, 1-(3,5-Difluorobenzyl)-N-(2,4,6-trifluorobenzyl)-3,4-dihydro-1H-benzo[c][1,2]thiazine-7-carboxamide 2,2-dioxide]	< 1	> 10	> 10	> 10	> 10		
O=C(NCc1cc2ccccc2o1)c1ccc2c(n1)N(Cc1cc(F)cc(F)c1)C(=O)CS2 [Example 183, N-(benzofuran-2-ylmethyl)-4-(3,5-difluorobenzyl)-3-oxo-3,4-dihydro-2H-pyrido[3,2-b-1,4]thiazine-6-carboxamide]	1 to 10	> 10	1 to 10	1 to 10	1 to 10		
O=C(NCc1ccco1)c1ccc2c(c1)N(Cc1ccc(F)cc1)C(=O)CS2 [Example 120, 4-(4-fluorobenzyl)-N-(furan-2-ylmethyl)-3-oxo-3,4-dihydro-2H-benzo[b-1,4]thiazine-6-carboxamide]	1 to 10	> 10	1 to 10	> 10	> 10		
C[C@@H]1Oc2ccc(C(=O)NCc3cc4ccccc4o3)cc2N(Cc2cc(F)cc(F)c2)C1=O [Example 235, (S)-N-(benzofuran-2-ylmethyl)-4-(3,5-difluorobenzyl)-2-methyl-3-oxo-3,4-dihydro-2H-benzo[b-1,4]oxazine-6-carboxamide]	< 1	1 to 10	1 to 10	1 to 10	1 to 10		
CC1(C)Sc2ccc(C(=O)NCC3CCCCC3)cc2N(Cc2ccccc2F)C1=O [Example 136, N-(cyclohexylmethyl)-4-(2-fluorobenzyl)-2,2-dimethyl-3-oxo-3,4-dihydro-2H-benzo[b-1,4]thiazine-6-carboxamide]	1 to 10	> 10	> 10	> 10	> 10		
O=C(NCc1ccco1)c1ccc2c(n1)N(Cc1c(F)cccc1Cl)C(=O)CS2 [Example 181, 4-(2-chloro-6-fluorobenzyl)-N-(furan-2-ylmethyl)-3-oxo-3,4-dihydro-2H-pyrido[3,2-b-1,4]thiazine-6-carboxamide]	1 to 10	> 10	> 10	> 10	> 10		
CC1Sc2ncc(C(=O)NCc3cc4ccccc4o3)cc2N(Cc2c(F)cccc2Cl)C1=O (centres unmarked) [Example 199, N-(benzofuran-2-ylmethyl)-1-(2-chloro-6-fluorobenzyl)-3-methyl-2-oxo-2,3-dihydro-1H-pyrido[2,3-b][1,4]thiazine-7-carboxamide]	< 1	1 to 10	< 1	< 1	1 to 10		

Next, values leading:

EC50 (WT/R232 STING protein) [µM]	EC50 (IRF pathway; Homo sapiens, THP1-Dual) [µM]	EC50 (hSTING(H232)) [µM]	EC50 (hSTING(HAQ)) [µM]	EC50 (NF-κB pathway; Homo sapiens, THP1-Dual) [µM]	EC50 (IRF pathway) [µM]	EC50 (NF-κB pathway) [µM]	Compound
< 1	1 to 10	< 1	< 1	1 to 10			CC1(C)CC(=O)N(Cc2cc(F)cc(F)c2)c2cc(C(=O)NCc3c(F)cc(F)cc3F)ccc21 [Example 271, 1-(3,5-difluorobenzyl)-4,4-dimethyl-2-oxo-N-(2,4,6-trifluorobenzyl)-1,2,3,4-tetrahydroquinoline-7-carboxamide]
< 1	> 10	1 to 10	1 to 10	> 10			C[C@@H]1Oc2ccc(C(=O)NCc3c(F)cc(F)cc3F)cc2N(Cc2cc(F)cc(F)c2)C1=O [Example 234, (S)-4-(3,5-difluorobenzyl)-2-methyl-3-oxo-N-(2,4,6-trifluorobenzyl)-3,4-dihydro-2H-benzo[b-1,4]oxazine-6-carboxamide]
< 1	1 to 10	< 1	< 1	< 1			CC1Sc2ccc(C(=O)NCc3cc4ccccc4o3)cc2N(Cc2cc(F)cc(F)c2)C1=O (centres unmarked) [Example 149, N-(benzofuran-2-ylmethyl)-4-(3,5-difluorobenzyl)-2-methyl-3-oxo-3,4-dihydro-2H-benzo[b][1,4] thiazine-6-carboxamide]
< 1	> 10	> 10	> 10	> 10			O=C(NCc1c(F)cc(F)cc1F)c1cnc2c(c1)N(Cc1c(F)cccc1Cl)C(=O)CS2 [Example 178, 1-(2-chloro-6-fluorobenzyl)-2-oxo-N-(2,4,6-trifluorobenzyl)-2,3-dihydro-1H-pyrido[2,3-b-1,4]thiazine-7-carboxamide]
< 1	1 to 10	1 to 10	1 to 10	1 to 10			CC1Sc2ccc(C(=O)NCc3ccco3)cc2N(Cc2cc(F)cc(F)c2)C1=O (centres unmarked) [Example 156, 4-(3,5-difluorobenzyl)-N-(furan-2-ylmethyl)-2-methyl-3-oxo-3,4-dihydro-2H-benzo [b][1,4]thiazine-6-carboxamide]
< 1	1 to 10	1 to 10	1 to 10	1 to 10			CC1(C)Sc2ccc(C(=O)NCc3c(F)cc(F)cc3F)cc2N(Cc2ccccc2F)C1=O [Example 218, 4-(2-fluorobenzyl)-2,2-dimethyl-3-oxo-N-(2,4,6-trifluorobenzyl)-3,4-dihydro-2H-benzo[b][1,4] thiazine-6-carboxamide]
< 1	1 to 10	1 to 10	1 to 10	1 to 10			CC1Sc2ccc(C(=O)NCc3c(F)cc(F)cc3F)cc2N(Cc2ccncc2)C1=O (centres unmarked) [Example 157, 2-methyl-3-oxo-4-(pyridin-4-ylmethyl)-N-(2,4,6-trifluorobenzyl)-3,4-dihydro-2H-benzo[b][1,4] thiazine-6-carboxamide]
< 1	> 10	< 1	< 1	> 10			O=C(NCc1c(F)cc(F)cc1F)c1ccc2c(c1)N(Cc1c(F)cccc1Cl)C(=O)CS2 [Example 112, 4-(2-chloro-6-fluorobenzyl)-3-oxo-N-(2,4,6-trifluorobenzyl)-3,4-dihydro-2H-benzo[b-1,4]thiazine-6-carboxamide]
< 1	> 10	< 1	1 to 10	> 10			O=C(NCc1ccc(F)cc1F)c1ccc2c(c1)N(Cc1c(F)cccc1Cl)C(=O)CS2 [Example 34, 4-(2-chloro-6-fluorobenzyl)-N-(2,4-difluorobenzyl)-3-oxo-3,4-dihydro-2H-benzo[b-1,4]thiazine-6-carboxamide]
< 1	1 to 10	< 1	< 1	1 to 10			CC1Sc2ncc(C(=O)NCc3c(F)cc(F)cc3F)cc2N(Cc2c(F)cccc2Cl)C1=O (centres unmarked) [Example 196, 1-(2-chloro-6 fluorobenzyl) 3-methyl-2-oxo-N-(2,4,6-trifluorobenzyl)-2,3-dihydro-1H-pyrido[2,3-b][1,4]thiazine-7-carboxamide]
< 1	1 to 10	< 1	< 1	1 to 10			CC1Sc2ncc(C(=O)NCc3c(F)cc(F)cc3F)cc2N(Cc2cc(F)cc(F)c2)C1=O (centres unmarked) [Example 192, 1-(3,5-difluorobenzyl)-3-methyl-2-oxo-N-(2,4,6-trifluorobenzyl)-2,3-dihydro-1H-pyrido[2,3-b][1,4]thiazine-7-carboxamide]
